The values below come from patent US20240109903A1, “SUBSTITUTED HETEROCYCLES FOR TREATING CANCER” (Northwestern University, priority 2022, published 2024).

This test concerns MV-4-11 acute myeloid leukemia cells. The test can be described thus: CellTiter-Glo 2.0 cell viability, MV-4-11. The format is cell-based. To be noted: Homo sapiens; for IC50: MV4-11, 72 h, MV-4-11 cells, 3 days, CellTiter-Glo 2.0, read-out: IC50 (uM) [Cell Type: MV-4-11]; for pIC50: MV4-11, bound stated in text, read-out: IC50 against MV-4-11 acute myeloid leukemia cells. Here is the method: 2019 October; 94(4): 1813-1823.
Cell viability was assessed using the CellTiter-Glo 2.0 assay from Promega, which yields a signal proportional to the amount of ATP present in a cell population. Compounds were first dispensed into empty 96-well flat-bottom tissue culture-treated plates (Corning) using an Echo550. MV4-1 cells were diluted to a density of 0.1 million cells per ml, pipetted onto the compounds at a density of 1,000 cells per well for U937 and 3,000 cells per well for MV4-11, mixed, and incubated for 3 days at 37° C. with 5% C02. After incubating, 5 μl of cells from each well were added to 5 μl of CellTiter-Glo 2.0 reagent in a384-well white ProxiPlate (PerkinElmer), incubated for 20 minutes at ambient temperature, and luminescence was analyzed on an EnSpire plate reader. Graphing and regression analysis was performed in Graphpad Prism.
A general note: In ATP-based viability assays light output follows the ATP content of the culture.

pIC50: −log10 of the molar value. Read-outs that look alike come from different tables or passages of the source.

The term IC50 denotes the concentration that inhibits the measured activity by half. As a reminder, the pIC50 is the IC50 on a negative log10 scale, so that one unit is a factor of ten. For the compound `Cc1n[nH]c(C)c1CCn1c(C(F)(F)F)cc2c(Cl)ncnc21` [NUCC-0226684], the IC50 is 0.94 µM and the pIC50 is > 5.70.
For the compound `FC(F)(F)c1cc2c(Cl)ncnc2n1CC1CNC1` [NUCC-0226670], the IC50 was found to be 1.12 µM and the negative logarithm of the IC50 (pIC50) was > 5.70.
With `FC(F)(F)c1cc2c(Cl)ncnc2n1CCn1cccn1` [NUCC-0226685], the half-maximal inhibitory concentration (IC50) was determined as 3.98 µM.
Consider `OCCOCCn1c(C(F)(F)F)cc2c(Cl)ncnc21` [NUCC-0226665], for which the IC50 amounted to 1.23 µM and the pIC50 was > 5.70.
For the compound `FC(F)(F)CN1CC(Cn2c(C(F)(F)F)cc3c(Cl)ncnc32)C1` [NUCC-0226672], the half-inhibitory concentration (IC50) is 0.871 µM and the negative-log IC50 (pIC50) was > 5.70.
Take `FC(F)(F)CN1CCC(Cn2c(C(F)(F)F)cc3c(Cl)ncnc32)CC1` [NUCC-0226701]: the half-inhibitory concentration (IC50) worked out at 0.919 µM and the negative-log IC50 (pIC50) was > 5.70.
Regarding `Cc1cc2c(Cl)ncnc2n1CC1CCNCC1` [NUCC-0226699], the half-inhibitory concentration (IC50) is > 20 µM.
Take `FC(F)(F)c1cc2cncnc2n1CC1CCNCC1` [NUCC-0226687]: the 50% inhibitory concentration (IC50) was > 20 µM.
`CC(C)(C)OC(=O)N1CC(Cn2c(C(F)(F)F)cc3c(Cl)ncnc32)C1` [NUCC-0226669]: the half-maximal inhibitory concentration (IC50) was 1.02 µM and the pIC50 is > 5.70.
For the compound `FC(F)(F)c1cc2c(Cl)ncnc2n1Cc1ccncc1` [NUCC-0226691], the half-maximal inhibitory concentration (IC50) was found to be 1.32 µM and the negative logarithm of the IC50 (pIC50) was > 5.70.
For the compound `CC(C)(C)OC(=O)N1CCC(Cn2c(C(F)(F)F)cc3c(Cl)ncnc32)CC1` [NUCC-0226675, tert-butyl 4-((4-chloro-6-(trifluoromethyl)-7H-pyrrolo[2,3-d]pyrimidin-7-yl)methyl)piperidine-1-carboxylate], the IC50 stood at 2.51 µM.
For the compound `Cc1ncnc2c1cc(C(F)(F)F)n2CC1CCNCC1` [NUCC-0226696], the IC50 is > 20 µM.
Consider `O=c1cc(Cn2c(C(F)(F)F)cc3c(Cl)ncnc32)cc[nH]1` [NUCC-0226693], for which the IC50 was 2.01 µM.
For the compound `NC(=O)N1CCC(Cn2c(C(F)(F)F)cc3c(Cl)ncnc32)CC1` [NUCC-0226677], the IC50 came to 1.6 µM and the negative logarithm of the IC50 (pIC50) was > 5.70.
As for `CC(C)(C)OC(=O)N1CCC(CCn2c(C(F)(F)F)cc3c(Cl)ncnc32)CC1` [NUCC-0226678], the IC50 worked out at 1.3 µM and the pIC50 was > 5.70.
As for `COc1ccc(Cn2c(C(F)(F)F)cc3c(Cl)ncnc32)cn1` [NUCC-0226697], the IC50 was 1.08 µM and the pIC50 was > 5.70.
For `FC(F)(F)c1cc2c(Cl)ncnc2n1CCN1CCCC1` [NUCC-0226667] the same measures were 1.43 µM and > 5.70.
As for `N=C(N)N1CC(Cn2c(C(F)(F)F)cc3c(Cl)ncnc32)C1` [NUCC-0226671], the IC50 was > 20 µM.
Turning to `O=S1(=O)CCC(Cn2c(C(F)(F)F)cc3c(Cl)ncnc32)CC1` [NUCC-0226668], the IC50 was found to be 2.88 µM.
For the compound `FC(F)(F)c1cc2c(Cl)ncnc2n1CCC1CCNCC1` [NUCC-0226692], the 50% inhibitory concentration (IC50) came to 0.773 µM and the negative logarithm of the IC50 (pIC50) is > 5.70.
For `CC(C)(O)CCn1c(C(F)(F)F)cc2c(Cl)ncnc21` [NUCC-0226440], the half-inhibitory concentration (IC50) was 0.23 µM and the pIC50 is > 5.70.
For `CC(C)(C)OC(=O)N1CCN(CCn2c(C(F)(F)F)cc3c(Cl)ncnc32)CC1` [NUCC-0226681], the IC50 amounted to 0.949 µM and the negative-log IC50 (pIC50) was > 5.70.
As to `CN(C)CCn1c(C(F)(F)F)cc2c(Cl)ncnc21` [NUCC-0226666], the IC50 was 2.09 µM.
With `O=C1CCCN1CCn1c(C(F)(F)F)cc2c(Cl)ncnc21` [NUCC-0226439], the IC50 is 0.11 µM and the negative logarithm of the IC50 (pIC50) was > 5.70.
Turning to `Oc1ncnc2c1cc(C(F)(F)F)n2CC1CCNCC1` [NUCC-0226688], the IC50 is > 20 µM.
On to `CC(=O)N1CCC(Cn2c(C(F)(F)F)cc3c(Cl)ncnc32)CC1` [NUCC-0226676], for which the IC50 is > 20 µM.
With `Fc1ccc(Cn2c(C(F)(F)F)cc3c(Cl)ncnc32)cc1` [NUCC-0226686], the IC50 was 1.13 µM and the pIC50 was > 5.70.
On to `FC(F)(F)c1cc2c(Cl)ncnc2n1Cc1cccnc1` [NUCC-0226690], for which the IC50 stood at 0.562 µM and the negative logarithm of the IC50 (pIC50) was > 5.70.
Regarding `FC(F)(F)c1cc2c(Cl)ncnc2n1CCN1CCNCC1` [NUCC-0226682], the IC50 stood at 2.24 µM.
On the same count and under the same terms, in the case of `FC(F)(F)c1cc2c(Cl)ncnc2n1CC1CCOCC1` [NUCC-0226673] it was 2.68 µM.
